Source: ChEMBL document CHEMBL3885861, “Open TG-GATES”

Species: Rattus norvegicus
Assay: Open TG-GATES - Regimen: Daily Repeat
Assay type: toxicity, organism-based, Sprague-Dawley
Set-up: regimen Daily Repeat, gender Male, age 6 weeks
Conditions: in vivo, po, 100 mg/kg, route gavage, dose level Middle; for APTT / Bas / Eos / Fbg / Hb / Ht / Lym / MCH / MCHC / MCV / Mono / Neu / PT / Plat / RBC / Ret / WBC: tissue Blood; for KIDNEY_L / KIDNEY_R / KIDNEY_TOTAL: tissue Kidney; for LIVER: tissue Liver; for A/G / ALP / ALT / AST / BUN / CRE / Ca / Cl / DBIL / GLC / IP / K / LDH / Na / PL / RALB / TBIL / TC / TG / TP / gamma-GTP: tissue Plasma

In the case of `Brc1ccccc1` [BROMOBENZENE], the TERMINAL_BW (72 h, time 3 day) was 207.5 g, the APTT (72 h, time 3 day) was 14.7 s and the Bas (72 h, time 3 day) was 0.2%. It also gave an Eos (72 h, time 3 day) of 1%, a Fbg (72 h, time 3 day) of 300.2 mg/dL and a Hb (72 h, time 3 day) of 12.9 g/dL. For the same compound, the Ht (72 h, time 3 day) was 38.4%, the Lym (72 h, time 3 day) was 74.2% and the MCH (72 h, time 3 day) was 20.5 pg. The MCHC (72 h, time 3 day) was 33.5%, the MCV (72 h, time 3 day) was 61.1 fL and the Mono (72 h, time 3 day) was 3.5%. For the same compound, the Neu (72 h, time 3 day) was 20.5%, the PT (72 h, time 3 day) was 11.8 s and the Plat (72 h, time 3 day) was 118.8 x10_4/uL. It also gave an RBC (72 h, time 3 day) of 629 x10_4/ul, a Ret (72 h, time 3 day) of 6.2% and a WBC (72 h, time 3 day) of 95.6 x10_2/uL. The KIDNEY_L (72 h, time 3 day) was 0.9 g, the KIDNEY_R (72 h, time 3 day) was 0.9 g and the KIDNEY_TOTAL (72 h, time 3 day) was 1.8 g. For the same compound, the LIVER (72 h, time 3 day) was 11.6 g, the A/G (72 h, time 3 day) was 0.9 and the ALP (72 h, time 3 day) was 1811.5 IU/L. For the same compound, the ALT (72 h, time 3 day) was 56.5 IU/L, the AST (72 h, time 3 day) was 78.5 IU/L and the BUN (72 h, time 3 day) was 13 mg/dL. The CRE (72 h, time 3 day) was 0.2 mg/dL, the Ca (72 h, time 3 day) was 10.4 mg/dL and the Cl (72 h, time 3 day) was 106 meq/L. The DBIL (72 h, time 3 day) was 0.015 mg/dL, the GLC (72 h, time 3 day) was 179.8 mg/dL and the IP (72 h, time 3 day) was 6.4 mg/dL. The K (72 h, time 3 day) was 4.1 meq/L, the LDH (72 h, time 3 day) was 101.8 IU/L and the Na (72 h, time 3 day) was 142.2 meq/L. The PL (72 h, time 3 day) was 166.8 mg/dL, the RALB (72 h, time 3 day) was 2.7 g/dL and the TBIL (72 h, time 3 day) was 0.0575 mg/dL. The TC (72 h, time 3 day) was 88 mg/dL, the TG (72 h, time 3 day) was 66 mg/dL and the TP (72 h, time 3 day) was 5.7 g/dL. The gamma-GTP (72 h, time 3 day) was 1.2 IU/L, the TERMINAL_BW ([…], time 7 day) was 245.7 g and the TERMINAL_BW ([…], time 14 day) was 288.5 g. It also gave a TERMINAL_BW ([…], time 28 day) of 381.1 g, an APTT ([…], time 7 day) of 13.4 s and a Bas ([…], time 7 day) of 0%. The Eos ([…], time 7 day) was 1%, the Fbg ([…], time 7 day) was 317.4 mg/dL and the Hb ([…], time 7 day) was 13.3 g/dL. It also gave a Ht ([…], time 7 day) of 39.3%, a Lym ([…], time 7 day) of 75.8% and an MCH ([…], time 7 day) of 21.2 pg. The MCHC ([…], time 7 day) was 33.9%, the MCV ([…], time 7 day) was 62.5 fL and the Mono ([…], time 7 day) was 3%. For the same compound, the Neu ([…], time 7 day) was 19.8%, the PT ([…], time 7 day) was 12.2 s and the Plat ([…], time 7 day) was 112.7 x10_4/uL. The RBC ([…], time 7 day) was 629 x10_4/ul, the Ret ([…], time 7 day) was 6.9% and the WBC ([…], time 7 day) was 98.3 x10_2/uL. For the same compound, the APTT ([…], time 14 day) was 16.8 s, the Bas ([…], time 14 day) was 0% and the Eos ([…], time 14 day) was 1%. The Fbg ([…], time 14 day) was 326.4 mg/dL, the Hb ([…], time 14 day) was 14.2 g/dL and the Ht ([…], time 14 day) was 40.9%. For the same compound, the Lym ([…], time 14 day) was 78%, the MCH ([…], time 14 day) was 20.7 pg and the MCHC ([…], time 14 day) was 34.7%. For the same compound, the MCV ([…], time 14 day) was 59.8 fL, the Mono ([…], time 14 day) was 2.8% and the Neu ([…], time 14 day) was 18.2%. The PT ([…], time 14 day) was 11.9 s, the Plat ([…], time 14 day) was 113.2 x10_4/uL and the RBC ([…], time 14 day) was 685.4 x10_4/ul. The Ret ([…], time 14 day) was 4.6%, the WBC ([…], time 14 day) was 74.5 x10_2/uL and the APTT ([…], time 28 day) was 17.1 s. For the same compound, the Bas ([…], time 28 day) was 0%, the Eos ([…], time 28 day) was 1% and the Fbg ([…], time 28 day) was 304.8 mg/dL. The Hb ([…], time 28 day) was 14.6 g/dL, the Ht ([…], time 28 day) was 41.5% and the Lym ([…], time 28 day) was 73.8%. It also gave an MCH ([…], time 28 day) of 19.3 pg, an MCHC ([…], time 28 day) of 35.1% and an MCV ([…], time 28 day) of 55.1 fL. The Mono ([…], time 28 day) was 3%, the Neu ([…], time 28 day) was 21.2% and the PT ([…], time 28 day) was 12.9 s. For the same compound, the Plat ([…], time 28 day) was 109.2 x10_4/uL, the RBC ([…], time 28 day) was 754.6 x10_4/ul and the Ret ([…], time 28 day) was 2.6%. The WBC ([…], time 28 day) was 103.2 x10_2/uL, the KIDNEY_L ([…], time 7 day) was 1.1 g and the KIDNEY_R ([…], time 7 day) was 1.1 g. The KIDNEY_TOTAL ([…], time 7 day) was 2.2 g, the KIDNEY_L ([…], time 14 day) was 1.1 g and the KIDNEY_R ([…], time 14 day) was 1.1 g. It also gave a KIDNEY_TOTAL ([…], time 14 day) of 2.2 g, a KIDNEY_L ([…], time 28 day) of 1.4 g and a KIDNEY_R ([…], time 28 day) of 1.4 g. It also gave a KIDNEY_TOTAL ([…], time 28 day) of 2.7 g, an LIVER ([…], time 7 day) of 12.8 g and an LIVER ([…], time 14 day) of 13.7 g. It also gave an LIVER ([…], time 28 day) of 17 g, an A/G ([…], time 7 day) of 0.8 and an ALP ([…], time 7 day) of 1614.4 IU/L. It also gave an ALT ([…], time 7 day) of 43.4 IU/L, an AST ([…], time 7 day) of 65 IU/L and a BUN ([…], time 7 day) of 14.8 mg/dL. The CRE ([…], time 7 day) was 0.2 mg/dL, the Ca ([…], time 7 day) was 11.1 mg/dL and the Cl ([…], time 7 day) was 105.2 meq/L. The DBIL ([…], time 7 day) was 0.014 mg/dL, the GLC ([…], time 7 day) was 193.2 mg/dL and the IP ([…], time 7 day) was 7.1 mg/dL. It also gave a K ([…], time 7 day) of 4 meq/L, an LDH ([…], time 7 day) of 99.8 IU/L and a Na ([…], time 7 day) of 143 meq/L. It also gave a PL ([…], time 7 day) of 149 mg/dL, an RALB ([…], time 7 day) of 2.7 g/dL and a TBIL ([…], time 7 day) of 0.048 mg/dL. For the same compound, the TC ([…], time 7 day) was 71.6 mg/dL, the TG ([…], time 7 day) was 84.8 mg/dL and the TP ([…], time 7 day) was 5.9 g/dL. For the same compound, the gamma-GTP ([…], time 7 day) was 1 IU/L, the A/G ([…], time 14 day) was 0.8 and the ALP ([…], time 14 day) was 1557.8 IU/L. The ALT ([…], time 14 day) was 39.6 IU/L, the AST ([…], time 14 day) was 63.4 IU/L and the BUN ([…], time 14 day) was 14.6 mg/dL. The CRE ([…], time 14 day) was 0.2 mg/dL, the Ca ([…], time 14 day) was 10.9 mg/dL and the Cl ([…], time 14 day) was 107 meq/L. It also gave a DBIL ([…], time 14 day) of 0.008 mg/dL, a GLC ([…], time 14 day) of 185.6 mg/dL and an IP ([…], time 14 day) of 5.9 mg/dL. The K ([…], time 14 day) was 4 meq/L, the LDH ([…], time 14 day) was 56.6 IU/L and the Na ([…], time 14 day) was 143.6 meq/L. It also gave a PL ([…], time 14 day) of 150.4 mg/dL, an RALB ([…], time 14 day) of 2.8 g/dL and a TBIL ([…], time 14 day) of 0.046 mg/dL. It also gave a TC ([…], time 14 day) of 71.2 mg/dL, a TG ([…], time 14 day) of 100.6 mg/dL and a TP ([…], time 14 day) of 6.1 g/dL. The gamma-GTP ([…], time 14 day) was 1 IU/L, the A/G ([…], time 28 day) was 0.8 and the ALP ([…], time 28 day) was 1105.2 IU/L. For the same compound, the ALT ([…], time 28 day) was 40.8 IU/L, the AST ([…], time 28 day) was 61.8 IU/L and the BUN ([…], time 28 day) was 15.4 mg/dL. The CRE ([…], time 28 day) was 0.3 mg/dL, the Ca ([…], time 28 day) was 10.6 mg/dL and the Cl ([…], time 28 day) was 105.6 meq/L. For the same compound, the DBIL ([…], time 28 day) was 0.016 mg/dL, the GLC ([…], time 28 day) was 198.8 mg/dL and the IP ([…], time 28 day) was 5.8 mg/dL. It also gave a K ([…], time 28 day) of 3.9 meq/L, an LDH ([…], time 28 day) of 86.2 IU/L and a Na ([…], time 28 day) of 142.4 meq/L. It also gave a PL ([…], time 28 day) of 140.8 mg/dL, an RALB ([…], time 28 day) of 2.8 g/dL and a TBIL ([…], time 28 day) of 0.04 mg/dL. It also gave a TC ([…], time 28 day) of 72.8 mg/dL, a TG ([…], time 28 day) of 108.8 mg/dL and a TP ([…], time 28 day) of 6.3 g/dL. The gamma-GTP ([…], time 28 day) was 1 IU/L.
